According to patent publication US20210015092A1, “STABILIZATION OF WHOLE BLOOD AT ROOM TEMPERATURE” (Roche Diagnostics Operations, Inc., priority 2014, published 2021):

Assays:
MDA-MB-468 cells [1] = experiment: Quantification of RNA from MDA-MB-468 cells isolated after 72 h sample storage; assay type: cell-based, human; conditions: 72 hours at room temperature, GCK DNA as reference, two donors
Experimental: MDA-MB-468 cells were spiked into blood samples obtained from two healthy individuals at 14.4×10^6 cells/ml. From each donor four samples were prepared. […] Aliquots from these samples were processed immediately after set up, other aliquots were processed after storage at room temperature for 72 hours. MDA-MB-468 cells were isolated from blood by capturing with BreastSelectBeads from Adnagen Cat. No.: T1-508 with 1,000 μl aliquots of sample material according to the protocol recommended by the manufacturer.
The bead captured purified cells were resuspended in 1,000 μl PBS. With 200 μl aliquots RNA was isolated using the MagNA Pure LC DNA Isolation Kit—Large volume Cat No 03310515001 using the Program “DNA LV Blood_20_200” and an elution volume of 100 μl.
The RNA was transcribed into cDNA using Transcriptor First Strand cDNA Synthesis Kit Cat. No: 04897030001 in reactions of 70 μl volume, each reaction containing 12.5 μl of isolated nucleic acid. PCR was peformed with the with the LightCycler 480 Probes Master in a LightCycler 480 instrument in 20 μl reactions containing 5 μl of the cDNA samples. […]
To quantify the changes in expression level of the RNA target tested, the relative quantification method of Livak and Schmittgen was used (Livak K. J. and Schmittgen T. D., Methods 2001, 25(4) 402-408). […]

MDA-MB-468 cells [2] = experiment: Isolation of viable cells after sample storage for 48 hours, Trypan blue exclusion; assay type: cell-based, human; conditions: 48 hours at room temperature, two donors
Experimental: MDA-MB-468 cells were spiked into blood samples obtained from healthy individuals to result in a final concentration of 300,000 spiked cells/ml blood. The samples were processed either immediately or after storage at room temperature for 48 hours.
Immediately after sample set up and 48 hours later nucleated cells were enriched by erythrocyte lysis. […] The cells were sedimented by centrifugation at 200×g for 15 min.
From these samples the MDA-MB-468 cells were isolated using CD326 (EpCAM) Microparticles from Miltenyi (Cat No 130-061-101), MS columns and the MACS separator system (Milteny Cat. Nos. 130-042-201, 130-042-102) making use of the protocol recommended by the manufacturer.
The enriched cells were suspended in 300 μl of RPMI medium.
The viability of the cells was tested with the Trypan blue exclusion method. 10 μl of each sample was mixed with 10 μl of Trypan blue (Sigma-Aldrich T8154). The number of MDA-MB-468 cells excluding the dye was counted in a Neubauer chamber. The yield of viable cells was calculated using the cell number spiked into the blood samples as 100%.

MDA-MB-468 cells [3] = conditions: blood stored 48 hours at room temperature; cell index for 101 hours
Experimental: MDA-MB-468 cells treated and isolated as described in Example 6 were seeded into the wells of an E-Plate 96-well device (Roche Applied Science, Cat. No. 06472451001, Roche Diagnostics GmbH Mannheim, Germany) for the Real-Time Cell Analyzer (RTCA) MP (xCELLigence system). 50 μl aliquots of cells were seeded into wells containing 50 μl of RPMI medium. Duplicates were used for analysis. The E-Plate was incubated over night at 37° C. in an incubator to allow attachment of MDA-MB-468 cells to the bottom of the E-Plate. In order to remove contaminating blood derived cells the medium was removed and cells attached to the culture plate were washed 3 times with PBS. 150 μl of fresh RPMI medium was added per well and the E-Plate transferred to the Real-Time Cell Analyzer. Cell index was measured once per hour for 101 hours.

MDA-MB-468 cells [4] = experiment: Preservation of cellular proteins: anti-CK5/8 immunostaining of MDA-MB-468 cells spiked into blood; assay type: cell-based, human; conditions: EDTA blood, 48 hours at room temperature; Sivelestat 10 μg/ml, Pefabloc SC 1 mM, SkQ1 100 nM, Mito Q 100 nM, glutathione 3 mM; versus EDTA without additive
Experimental: Preservation of Cellular Proteins Suspended cells of MDA-MB-468, a human breast cancer cell line were spiked into blood samples obtained from healthy individuals to result in 100,000 spiked cells per ml blood. The samples were processed either immediately or after storage at room temperature for 48 hours.
Nucleated cells were enriched by erythrocytes lysis. […] After centrifugation at 200×g for 15 min, the supernatant was removed and the pellet was resuspended in 250 μl of lysis buffer. […] The cells were sedimented by centrifugation at 200×g for 15 min.
For each sample a volume of 50 μl of the cell suspension was spotted on a glass slide and air-dried. The slides were fixed in ice cold acetone for 10 min, washed with PBS twice and immersed in labeling mixture containing anti-cytokeratine K5/K8-FITC labeled antibody diluted 1:50 in PBS (cytokeratine=CK). After an incubation for 30 min in the dark the supernatant was removed. DAPI-containing mounting medium was added, the spots covered with cover slips and after a further incubation for 20 min analyzed on a Zeiss Axio Observer Microscope. The total number of nucleated cells and the CK 5/8 positive cells were analyzed with the Assay Builder Software from Zeiss.
MDA-MB-468 cells were spiked into blood samples obtained from healthy individuals to result in a concentration of 100,000 spiked cells/ml blood. The samples were processed either immediately or after storage at room temperature for 48 hours. […] Sample 3 was additionally supplemented with the mitochondria targeted antioxidant SS-31 (1 μM), sample 4 with glutathione (0.75 mM). Nucleated cells were enriched by erythrocytes lysis and processed as described in Example 1.

Row | Structure (SMILES) | percentage of MDA-MB-468 cells detected by immunostaining with Anti-CK5/8 (FIG. 1) (MDA-MB-468 cells [4]) | other results
1 | O=C(O)CN(CCN(CC(=O)O)CC(=O)O)CC(=O)O [EDTA] | – | change of RNA levels of isolated MDA-MB-468 cells (FIG. 4) (MDA-MB-468 cells [1]): strong decline in RNA levels; cell viability after storage, in words (MDA-MB-468 cells [2]): negatively affected; cell growth in culture of cells isolated from stored blood (FIG. 5) (MDA-MB-468 cells [3]): not culturable anymore
2 | COC1=C(OC)C(=O)C(CCCCCCCCCC[P+](c2ccccc2)(c2ccccc2)c2ccccc2)=C(C)C1=O [MitoQ, (10-(2,5-dihydroxy-3,4-dimethoxy-6-methylphenyl)decyl) triphenylphosphonium and (10-(4,5-dimethoxy-2-methyl-3,6-dioxocyclohexa-1,4-dienyl)decyl) triphenylphosphonium] | Particular positive effects | –
3 | Cl.NCCc1ccc(S(=O)(=O)F)cc1 [Pefabloc SC, 4-(2-aminoethyl) benzenesulfonyl fluoride hydrochloride] | higher signals than the control sample without additive | –
4 | CC(C)(C)C(=O)Oc1ccc(S(=O)(=O)Nc2ccccc2C(=O)NCC(=O)O)cc1 [Sivelestat] | higher signals than the control sample without additive | –
5 | CC1=C(C)C(=O)C(CCCCCCCCCC[P+](c2ccccc2)(c2ccccc2)c2ccccc2)=CC1=O [SkQ1, 10-(6′-plastoquinonyl) decyltriphenylphosphonium] | Particular positive effects | –
6 | N[C@@H](CCC(=O)N[C@@H](CS)C(=O)NCC(=O)O)C(=O)O [glutathione] | further positive effect | –
